The nature of the data set: Cytotoxicity activity against human HepG2 cells assessed by CellTiter-Glo luminescent cell viability assay. Further details: assay stage confirmatory assay, source tissue liver. Format: toxicity, cell-based. The following applies: HepG2 cells, read-out: IC50 relative. On the technique in general: ATP-based viability assays read luminescence as a measure of living cells.

Each structure is given as a SMILES string. Active and inactive are the calls of the source. No rule for the calls is given here.

Regarding `CCS(=O)(=O)N1CCc2ccc(NC(=O)Nc3cccc(C#N)c3)cc21`, the CC50 was 5.2 µM (active). In the case of `CSc1ccc(NC(=O)Nc2ccc3c(c2)N(S(C)(=O)=O)CC3)cc1`, the CC50 was 8.1 µM (inactive).

Turning to `COc1ccc(NS(=O)(=O)c2ccc3onc(C(=O)N4CCCC4)c3c2)cc1`, the CC50 is 7.1 µM (active). On to `CC(C)NC(=O)N1CC(Oc2ccc(-c3noc(C4CC4)n3)cc2)C1`, for which the CC50 was 2.6 µM (active). `CCn1c(=O)c2sc(N3CCCC3)nc2n(CC(=O)Nc2ccc(OC)cc2)c1=O`: the CC50 was 31.4 µM (inactive). Turning to `CC1CCN(S(=O)(=O)c2ccc(-c3nnc(C(=O)NCCCN4CCCCCC4)o3)cc2)CC1`, the CC50 was 15.6 µM (inactive). The result for `COc1ccc(-c2nc(CC3CCN(C(=O)NC(C)(C)C)C3)no2)cc1` (centres undefined) reads 7.8 µM (active). Regarding `CSc1cccc(NC(=O)Nc2ccc3c(c2)N(S(C)(=O)=O)CC3)c1`, the CC50 is 5.4 µM (active).

On to `CCCNC(=O)N1CC(Oc2ccc(-c3noc(C4CC4)n3)cc2)C1`, for which the CC50 is 6.1 µM (active). Turning to `CC(=O)Nc1ccc(NC(=O)c2c(O)c3sccc3n(Cc3ccccc3)c2=O)cc1`, the CC50 was 50 µM (inactive). On to `Cc1ccc(-c2cc3c(=O)n(Cc4noc(CN5CCN(C)CC5)n4)ccn3n2)cc1`, for which the CC50 was 9.4 µM (active). With `COc1ccc(NS(=O)(=O)c2ccc3onc(C(=O)N4CCCC4)c3c2)cc1OC` the figure was 0.6 µM (active). Consider `CCCNC(=O)N1CC(Oc2ccc(-c3noc(-c4ccncc4)n3)cc2)C1`, for which the CC50 is 3.1 µM (active). In the case of `CCC(C)NC(=O)N1CC(Oc2ccc(-c3noc(-c4ccncc4)n3)cc2)C1` (centres undefined), the CC50 was 3.8 µM (active). Regarding `Cc1cc(C(=O)Nc2ccc(Cl)cc2F)nc2ccnn12`, the CC50 was 2.4 µM (inactive).

Turning to `Cc1ccc(NC(=O)Nc2ccc3c(c2)N(S(C)(=O)=O)CC3)cc1`, the CC50 was 8.6 µM (inactive). In the case of `CCc1ccc(NC(=O)Nc2ccc3c(c2)N(S(C)(=O)=O)CC3)cc1`, the CC50 was 2.3 µM (active). With `Cc1ccc(NC(=O)Nc2ccc3c(c2)N(S(C)(=O)=O)CC3)cc1F` the figure was 3.6 µM (inactive); with `COc1ccc(OC)c(C(O)CN2CCN(c3cccc(C)c3C)CC2)c1` (centres undefined), 9.9 µM (active); with `O=C(CC1CCCN(c2cn[nH]c(=O)c2)C1)Nc1cccc(Cl)c1` (centres undefined), 8.1 µM (active). As to `Cc1ccc(NC(=O)Nc2ccc3c(c2)N(S(C)(=O)=O)CC3)cc1C`, the CC50 is 16.8 µM (inactive).

For `COc1ccc(NC(=O)Nc2ccc3nc(S(C)(=O)=O)sc3c2)cc1`, the CC50 is 17.5 µM (inactive). `CC(=O)c1ccc(N2CCN(S(=O)(=O)c3ccc4onc(C(=O)N5CCCC5)c4c3)CC2)cc1`: the CC50 was 0.9 µM (active). Regarding `CS(=O)(=O)N1CCc2ccc(NC(=O)Nc3cccc(C#N)c3)cc21`, the CC50 was 9.7 µM (active).

As to `CS(=O)(=O)N1CCc2ccc(NC(=O)Nc3cccc(Cl)c3)cc21`, the CC50 was 1.3 µM (active).

As to `Cc1cccc(NC(=O)Nc2ccc3c(c2)N(S(C)(=O)=O)CC3)c1`, the CC50 is 3.3 µM (active). `O=C(NCc1ccccc1)c1c(O)c2cccnc2n(Cc2ccccc2)c1=O`: the CC50 was 6.9 µM (active). The result for `CCC(C)NC(=O)N1CC(Oc2ccc(-c3noc(C4CC4)n3)cc2)C1` (centres undefined) reads 3.5 µM (active). With `CCc1cccc(NC(=O)Nc2ccc3c(c2)N(S(C)(=O)=O)CC3)c1` the figure was 2.9 µM (active); with `Cc1cc(F)ccc1N1CCC(NCC(O)c2cccc(O)c2)CC1` (centres undefined), 10.1 µM (active).

As to `CS(=O)(=O)N1CCc2ccc(NC(=O)Nc3ccc(Cl)cc3)cc21`, the CC50 is 3.9 µM (inactive). For the compound `COc1ccc(NC(=O)Nc2ccc3c(c2)N(S(C)(=O)=O)CC3)cc1Cl`, the CC50 is 10.5 µM (inactive). In the case of `CCCS(=O)(=O)N1CCc2ccc(NC(=O)Nc3cccc(C#N)c3)cc21`, the CC50 was 10.2 µM (active). As for `CC(C)NC(=O)N1CC(Oc2ccc(-c3noc(-c4cccnc4)n3)cc2)C1`, the CC50 was 3.4 µM (active).

These data come from ChEMBL document CHEMBL5303711, “ECBD screening data for assay EOS300108” (2023).
